Target: T1, TcpJ (Vibrio cholerae serotype O1, UniProt A5F385)
T1 construct: made in house; host or cells: E. coli JM109 carrying pCL9 (total membrane fraction)
T1 sequence (A5F385 1-253): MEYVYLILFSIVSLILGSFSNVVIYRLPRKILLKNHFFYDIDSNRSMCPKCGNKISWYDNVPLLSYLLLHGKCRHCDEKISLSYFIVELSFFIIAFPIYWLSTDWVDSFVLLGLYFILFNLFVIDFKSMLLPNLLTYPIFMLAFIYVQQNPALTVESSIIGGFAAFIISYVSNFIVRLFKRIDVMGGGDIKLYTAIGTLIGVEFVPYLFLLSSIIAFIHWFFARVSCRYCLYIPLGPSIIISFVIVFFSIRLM
Test: In vitro TcpA prepilin cleavage assay with inhibitors
Format: biochemical
Conditions: compared to compounds where R is methyl
Description: By way of illustration, the effect of inhibitors on the peptidase activity of TcpJ can be determined by incubating the inhibitor with an amount of membrane preparation known to contain 1 unit of activity of TcpJ for 30 minutes at room temperature. The TcpJ/inhibitor mixture is then tested for peptidase activity. Amounts of cleaved TcpA prepilin can be quantitated and applied to the formula: % cleavage=(amount of cleaved TcpA in inhibition assay/amount of cleaved TcpA in no inhibitor control assay)×100.
Membrane preparations were prepared according to a modified cell fractionation protocol (Pfau (1998) J. Bact. 180(17):4724-33). Overnight cultures were placed on ice for 20 minutes then pelleted at 5000×g for 10 minutes. The cell pellet was resuspended in 1 ml 200 mM Tris pH 8.0 to which 1 ml 50 mM Tris pH 8.0, 1 M sucrose, 2 ml water, 20 μl 0.5 M EDTA, and 20 μl lysozyme (10 mg/ml) were added. The cell suspension was allowed to incubate on ice for 30 minutes. Then, 100 μl 1 M MgSO4 was added and the suspension was pelleted at 5000×g for 10 minutes. […]
A membrane preparation from the E. coli strain K38 p3Z-A, pGP1-2, which was determined to contain 0.2 μg TcpA prepilin/μl, was the source of prepilin in the in vitro TcpJ proteases assay instead of purified prepilin. […]

Nc1cc[n+](Cc2ccc(-c3ccc(C[n+]4ccc(N)c5ccccc54)cc3)cc2)c2ccccc12 [TC-7]
IC50 value: lower IC50 value compared to compounds where R is methyl

— patent publication US9796679B2, “Type 4 prepilin peptidase inhibitors and methods of use” (priority 2014, dated 2017)
